# From publication PMC10070635, “Targeting Enterococcus faecalis HMG-CoA reductase with a non-statin inhibitor” (Communications Biology, 2023)
# pKi: −log10 of the molar value.
# Assays:
# [1] = biological target: T1, Enterococcus faecalis HMG-CoA reductase (efHMGR) (Enterococcus faecalis, UniProt A0A4U3MLJ4); assay: X-ray co-crystal structure ([…] Å); type: binding
# T1 construct: gene EY666_03235; C-terminal domain (residues 381-803) of the mvaE gene product, N-terminal 6X-His tag
# [2] = biological target: T1, Enterococcus faecalis HMG-CoA reductase (efHMGR); assay: X-ray co-crystal structure ([…] Å); mevalonate oxidation enzyme assay with Ki (IC50 […]); type: biochemical
# [3] = biological target: T1, Enterococcus faecalis HMG-CoA reductase (efHMGR); assay: mevalonate oxidation assay, NADPH absorbance at […] nm; […] inhibition at […]; type: biochemical
# [4] = biological target: T1, Enterococcus faecalis HMG-CoA reductase (efHMGR); assay: X-ray crystal structure ([…] Å); type: binding
smiles,measurement,setting,value
CC(C)(COP(=O)(O)OP(=O)(O)OC[C@H]1O[C@@H](n2cnc3c(N)ncnc32)[C@H](O)[C@@H]1OP(=O)(O)O)[C@@H](O)C(=O)NCCC(=O)NCCSC(=O)C[C@@](C)(O)CC(=O)O [HMG-CoA],X-ray co-crystal structure (2.27 Å),[1],HMG-CoA binds to the large domain of one monomer and NADP^+ to small domain of the other monomer
NC(=O)c1ccc[n+]([C@@H]2O[C@H](COP(=O)(O)OP(=O)(O)OC[C@H]3O[C@@H](n4cnc5c(N)ncnc54)[C@H](OP(=O)(O)O)[C@@H]3O)[C@@H](O)[C@H]2O)c1 [NADP+],X-ray co-crystal structure (2.27 Å),[1],NADP^+ is present in all the active sites and HMG-CoA in only one
"CCCCc1ccc(NS(=O)(=O)c2ccc(O)c(C(=O)O)c2)cc1 [compound 315, 5-{[(4-butylphenyl)amino]sulfonyl}-2-hydroxybenzoic acid]",pKi,[2],5.70
CC[C@H](C)C(=O)O[C@H]1C[C@@H](C)C=C2C=C[C@H](C)[C@H](CC[C@@H]3C[C@@H](O)CC(=O)O3)[C@H]21 [lovastatin],inhibition at 50 µM,[3],32%
C[C@@](O)(CCO)CC(=O)O [mevalonate],X-ray crystal structure (2.27 Å),[4],Density consistent with mevalonate is also found in one of the active sites.
